Data on one compound can be found in patent US6794396B2, “Substituted pyridines useful for inhibiting cholesteryl ester transfer protein activity” (Pharmacia Corporation, priority 1998, dated 2004).

For test [1], the target named is T1, CETP (Homo sapiens, UniProt P11597).
T1 construct: made in house; host or cells: CHO cells (serum-free conditioned medium)
T1 sequence (P11597 18-493): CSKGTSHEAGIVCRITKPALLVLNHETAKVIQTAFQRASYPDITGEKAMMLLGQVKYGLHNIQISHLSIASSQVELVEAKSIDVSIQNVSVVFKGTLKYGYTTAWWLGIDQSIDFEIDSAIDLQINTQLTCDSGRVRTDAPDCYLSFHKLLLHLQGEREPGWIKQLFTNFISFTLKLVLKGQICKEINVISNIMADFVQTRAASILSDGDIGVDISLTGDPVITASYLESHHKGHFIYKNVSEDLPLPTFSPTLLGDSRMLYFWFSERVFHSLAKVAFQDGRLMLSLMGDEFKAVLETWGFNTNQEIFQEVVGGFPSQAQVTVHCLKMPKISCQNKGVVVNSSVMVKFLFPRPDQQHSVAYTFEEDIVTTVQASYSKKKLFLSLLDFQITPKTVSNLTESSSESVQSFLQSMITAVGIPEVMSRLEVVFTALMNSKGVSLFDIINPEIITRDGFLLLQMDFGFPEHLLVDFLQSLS
Description: CETP activity in vitro: transfer of [3H]CE from HDL donor to LDL acceptor particles. The note with it: Table 5, compounds of formula T-5; read-out: IC50. Format: biochemical. The method in brief:
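Transfer of radiolabelled cholesteryl ester from HDL to LDL was followed over 2 h at 37 °C in Tris buffer (pH 7.4, 150 mM NaCl, 2 mM EDTA, 1% BSA), using CETP secreted by transfected CHO cells. Radioactivity in dextran sulfate/Mg-precipitated LDL was measured by scintillation counting, giving IC50.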

Test [2] relates to CETP. The test is described as follows: Inhibition of CETP activity in vivo: [3H]CE transfer from HDL to VLDL and LDL after intravenous injection. More on the design: species or system golden Syrian hamster. The note with it: hamsters, injection into jugular vein; for % Inhibition of CETP activity: versus control animals. From the text:
Inhibition of CETP by a test compound can be determined by administering the compound to an animal by intravenous injection, determining the rate of transfer of tritium-labeled cholesteryl ester (^3H]CE) from HDL to VLDL and LDL particles, and comparing the rate of transfer with the rate of transfer observed in control animals.
Male golden Syrian hamsters were maintained on a diet of chow containing 0.24% cholesterol for at least two weeks prior to the study. Immediately before the experiment, animals were anesthetized with pentobarbital. Anesthesia was maintained throughout the experiment. Indwelling catheters were inserted into the jugular vein and carotid artery. Test compound, Dimethyl 5,5′-dithiobis[2-difluoromethyl)-4-(2-methylpropyl)-6-(trifluoromethyl)-3-pyridinecarboxylate] (Compound 181), was dissolved as a 80 mM stock solution in vehicle (2% ethanol: 98% PEG 400, Sigma Chemical Company, St. Louis, Mo., USA). At the start of the experiment all animals received 0.2 ml of a solution containing [^3H]-CE-HDL into the jugular vein. [^3H[-CE-HDL is a preparation of human HDL containing tritium-labeled cholesteryl ester, and was prepared according to the method of Glenn et al. (“Quantification of Cholesteryl Ester Transfer Protein (CETP): A) CETP Activity and B) Immunochemical Assay of CETP Protein,” Meth. Enzymol., Glenn and Melton (Meth. Enzymol., 263, 339-351 (1996) which is incorporated herein by reference).
After 2 minutes, the animals received 0.1 ml of the test solution injected into the jugular vein. Control animals received 0.1 ml of the vehicle solution without test compound. After 5 minutes, the first blood samples (0.5 ml) were taken from the carotid artery and collected in standard microtainer tubes containing ethylenediamine tetraacetic acid. Saline (0.5 ml) was injected to flush the catheter and replace blood volume. Subsequent blood samples were taken at two hours and four hours by the same method. Blood samples were mixed well and kept on ice until the completion of the experiment.
Plasma was obtained by centrifugation of the blood samples at 4° C. The plasma (50 μl) was then treated with 5 μl of precipitating reagent (dextran sulfate, 10 g/l; 0.5M magnesium chloride to remove VLDL/LDL. After centrifugation, the resulting supernatant (25 μl) containing the HDL was analyzed for radioactivity using a liquid scintillation counter. The percentage [^3H] CE transferred from HDL to LDL and VLDL (% transfer) was calculated based on the total radioactivity in equivalent serum samples before precipitation. Typically, the amount of transfer from HDL to LDL and VLDL in control animals was 30 to 35% after four hours. The polyethylene glycol vehicle was determined to have no effect on CETP activity in this model.
(Compound 181), and five animals that received vehicle. At two hours, mean values of 13% [^3H]-Ce transfer from HDL to LDL and VLDL were obtained for the control animals, but only 4.7% transfer for the animals receiving Compound 181. […] Student t-tests were performed to determine if the means for control and animals treated with Compound 181 were statistically different.

“And” between values parts separate entries of the source, which are not always exact repeats. Identical values can stand only once.

For orientation: IC50 means the point on the concentration scale where inhibition reaches its midpoint.

With `COC(=O)c1c(C(F)F)nc(C(F)(F)F)c(SSc2c(C(F)(F)F)nc(C(F)F)c(C(=O)OC)c2CC(C)C)c1CC(C)C` [Compound 181, Dimethyl 5,5′-Dithiobis[2-(difluoromethyl)-4-(2-methylpropyl)-6-(trifluoromethyl)-3-pyridinecarboxylate]], at CETP [1], the IC50 is 1500 nM. In the test on CETP [2] (four hours), the “% Transfer of [3H]-CE from HDL to LDL and VLDL” value was found to be 10.6%; the “% Inhibition of CETP activity” value came out at 50.8%. In the test on CETP [2] (two hours), the “% Transfer of [3H]-CE from HDL to LDL and VLDL” value is on record as 4.7%; the “% Inhibition of CETP activity” value is 64% and 63.6%.
